Laboratory results published in patent publication US20150361400A1, “COMPOSITIONS AND METHODS FOR MAINTAINING AND IMPROVING PANCREATIC ISLET CELL FUNCTION AND STABILITY” (WAKE FOREST UNIVERSITY HEALTH SCIENCES, priority 2013, published 2015).

Key:
[1] = system: autoimmune diabetes; details: treatment of recipient NOD.scid mice before transfer of BDC-2.5 clone; cited from earlier work
[2] = system: isolated cultured human islets; assay: RNA-Seq gene expression in isolated cultured human islets with or without Raloxifene; format: cell-based; details: for % decrease in gene expression: 10 nM Raloxifene vs control
Experimental: FIG. 1: Inhibition of estrogen receptor signaling prevents dedifferentiation in cultured islets. Islets were either untreated or treated with an estrogen receptor selective estrogen receptor modulator (SERM; 10 nM Raloxifene). RNA-Seq analysis of cultured islets was performed following 4 days in culture. Raloxifene treatment was for one day on the final day of culture. Expression levels of individual genes were calculated by the method of RPKM (reads per kilobase per million mapped reads). Data is represented as the log of the ratio (Islets-Raloxifene: Islets-no treatment) where positive values indicate an increase in gene expression with Raloxifene treatment. […] (IL-8, CXXL6, SERPINB2, OLFM4).
Following isolation, the islet cell clusters are cultured in Connaught Medical Research Laboratory 1066 medium supplemented with 10 nM Raloxifene. These are the conditions described in the legend to FIG. 1.
An inflammatory gene expression profile is evoked following human islet isolation and culture and suppressed by Raloxifene treatment. Gene expression was assessed in isolated cultured human islets on multiple days following the isolation procedure. Islets were cultured in standard CMRL media with or without the addition of Raloxifene and gene expression profiles were assessed by RNA-Seq. In table 2A, the progressive increase of NFkB-target gene expression is observed over consecutive days in culture. Of note, significant increases in canonical NFkB targets (CCL2, CCL20, IL1B) as well as NFkB coordinately regulated gene clusters, such as the innate immunity gene cluster (APOL1-APOL6) were observed. In table 2B, Raloxifene treatment (10 nM) suppressed gene expression of the innate immunity gene cluster (APOL1-APOL6) which is typically observed to increase with the isolation and culture of human islets. Gene expression was assessed with RNA-Seq and quantification of gene transcripts is represented as RPKM ([…]). Note, three genes (APOL1, APOL2, and APOL6) in the innate immunity gene cluster were each reduced by Raloxifene treatment.

SMILES	onset of diabetes (disease) [1]	endocrine phenotype of isolated islet cultures [2]	gene expression of the innate immunity gene cluster (APOL1-APOL6) ([2]; 10 nM Raloxifene)	% decrease in gene expression ([2]; APOL1 gene) [%]	RPKM (Ral) ([2]; APOL1 gene, 10 nM Raloxifene, control 2.1) [RPKM]	% decrease in gene expression ([2]; APOL2 gene) [%]	RPKM (Ral) ([2]; APOL2 gene, 10 nM Raloxifene, control 13.6) [RPKM]	% decrease in gene expression ([2]; APOL6 gene) [%]	RPKM (Ral) ([2]; APOL6 gene, 10 nM Raloxifene, control 1.5) [RPKM]	expression of housekeeping genes ([2]; GAPDH, ACTB, B2M, 10 nM, one day on final day of 4 days culture)	increase in expression of inflammatory genes and genes associated with a dedifferentiation profile ([2]; IL-8, CXXL6, SERPINB2, OLFM4, 10 nM, one day on final day of 4 days culture)	expression of genes associated with a differentiated phenotype ([2]; SYT8, INS, 10 nM, one day on final day of 4 days culture)
CCN1C=CC=C/C1=C1/C2=NC(=C(c3cccc[n+]3CC)C3=NC(=C(c4cccc[n+]4CC)c4ccc([n-]4)C(c4cccc[n+]4CC)=C4C=CC1=N4)C=C3)C=C2.[Cl-].[Cl-].[Cl-].[Cl-].[Cl-].[Mn+3] [AEOL-10113]	significantly delayed or prevented altogether	–	–	–	–	–	–	–	–	–	–	–
O=C(c1ccc(OCCN2CCCCC2)cc1)c1c(-c2ccc(O)cc2)sc2cc(O)ccc12 [Raloxifene]	–	preserved the endocrine phenotype	suppressed	15	1.8	68	4.3	41	0.9	without effect	prevented	increased expression
